Test results as given in ChEMBL document CHEMBL1146623, “Two antiviral compounds from the plant Stylogne cauliflora as inhibitors of HCV NS3 protease” (Bioorg Med Chem Lett, 2003).

Legend:
NS3 [1] = target: T1, NS3 (Hepatitis C virus, UniProt A3EZJ3); experiment: Inhibitory activity evaluated in the HCV NS3 protease activity assay; set-up: species or system Hepacivirus hominis
NS3 [2] = target: T1, NS3; experiment: Inhibitory activity evaluated in the HCV NS3 protease assay; set-up: species or system Hepacivirus hominis

T1 sequence (A3EZJ3 whole entry): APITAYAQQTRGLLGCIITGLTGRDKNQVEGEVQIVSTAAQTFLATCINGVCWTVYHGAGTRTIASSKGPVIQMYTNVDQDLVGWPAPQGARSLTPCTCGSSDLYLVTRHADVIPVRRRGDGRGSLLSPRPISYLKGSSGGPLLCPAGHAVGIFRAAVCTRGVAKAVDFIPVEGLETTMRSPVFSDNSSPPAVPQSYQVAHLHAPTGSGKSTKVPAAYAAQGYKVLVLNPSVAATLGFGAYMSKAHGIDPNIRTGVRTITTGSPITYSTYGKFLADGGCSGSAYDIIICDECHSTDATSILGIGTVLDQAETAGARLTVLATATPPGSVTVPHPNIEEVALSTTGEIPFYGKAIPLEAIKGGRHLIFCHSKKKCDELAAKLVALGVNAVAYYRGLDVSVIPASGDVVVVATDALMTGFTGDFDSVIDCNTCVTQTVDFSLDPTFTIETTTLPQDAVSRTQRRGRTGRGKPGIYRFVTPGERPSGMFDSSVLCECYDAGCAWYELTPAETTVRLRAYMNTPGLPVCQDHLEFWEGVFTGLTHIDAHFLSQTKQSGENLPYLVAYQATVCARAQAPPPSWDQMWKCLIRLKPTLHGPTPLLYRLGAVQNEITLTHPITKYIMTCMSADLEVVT

Structure (SMILES)	IC50 (NS3 [1])	IC50 (NS3 [2])
O=C1OC[C@H]2O[C@@H](Oc3cc(O)c4c(c3)OC(c3ccccc3)CC4=O)[C@H](O)[C@@H](O)[C@@H]2OC(=O)c2cc(O)c(O)c(O)c2-c2c1cc(O)c(O)c2O (some centres not stated)	300 nM	–
O=C1OC[C@H]2O[C@@H](Oc3cc(O)c(C(=O)CCc4ccccc4)c(O)c3)[C@H](O)[C@@H](O)[C@@H]2OC(=O)c2cc(O)c(O)c(O)c2-c2c1cc(O)c(O)c2O [THONNINGIANIN B]	–	800 nM
